# From US6525059B1, “Substituted pyrazoles as p38 kinase inhibitors” (G. D. Searle & Company, priority 1998, dated 2003)
# Like-named read-outs stand apart in the source and are kept apart here.
# What was measured:
# [1] = molecular target: T1, human GST-p38 kinase alpha (Homo sapiens, UniProt Q16539); assay: p38 kinase in vitro assay, second format, phosphorylation of EGFRP with 33P-ATP; assay type: biochemical; conditions: EGFRP assay procedure
# T1 construct: The coding region of the human p38a cDNA was obtained by PCR-amplification from RNA isolated from the human monocyte cell line THP.1; made in house; host or cells: E. coli DH10B
# T1 sequence (Q16539 whole entry): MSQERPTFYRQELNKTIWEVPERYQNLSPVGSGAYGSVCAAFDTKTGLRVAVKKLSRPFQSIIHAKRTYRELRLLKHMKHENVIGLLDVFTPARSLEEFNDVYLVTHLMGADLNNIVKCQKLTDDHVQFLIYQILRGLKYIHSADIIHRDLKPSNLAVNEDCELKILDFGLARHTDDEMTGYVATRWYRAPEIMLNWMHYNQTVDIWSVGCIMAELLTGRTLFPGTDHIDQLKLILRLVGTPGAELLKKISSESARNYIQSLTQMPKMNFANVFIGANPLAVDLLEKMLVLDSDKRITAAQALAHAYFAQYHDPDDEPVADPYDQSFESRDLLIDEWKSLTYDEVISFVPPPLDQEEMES
# Summary of the method: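 Activated human GST-p38α (pre-activated with GST-MKK6, 1 h, 30 °C) phosphorylates EGFR 21-mer peptide (200 μM) with 50 μM ATP plus γ-33P-ATP, pH 7.5, 60 min at room temperature. Unreacted ATP removed by AG 1×8 resin; supernatant scintillation-counted.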
# [2] = tested on: TNF alpha; assay: Mouse model of LPS-induced TNF alpha production; assay type: in vivo; conditions: for inhibition in vivo at 100 mg/kg: 100 mpk oral gavage
# Description: TNF alpha was induced in 10-12 week old BALB/c female mice by tail vein injection with 100 ng lipopolysaccharide (from S. Typhosa) in 0.2 ml saline. One hour later mice were bled from the retroorbital sinus and TNF concentrations in serum from clotted blood were quantified by ELISA.
# Efficacy was determined at each time point as percent inhibition of serum TNF levels relative to LPS injected mice that received vehicle only
# wherein in the dose is milligram per kilogram (mpk) administered by oral gavage and the predose time indicates the number of hours before LPS challenge when the compound is administered.
# [3] = tested on: TNF-α; assay: LPS stimulation of TNF production by U937 cells; assay type: cell-based, human; conditions: Homo sapiens
# Summary of the method: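 PMA-differentiated human U937 cells (20 ng/ml PMA, 24 h, then 24-48 h rest) at 2 million cells/ml, 0.1% DMSO final, stimulated with E. coli LPS (100 ng/ml final) for 4 h at 37° C. TNF-α in medium measured by ELISA; IC50 in μM.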
# [4] = molecular target: T2, human p38 kinase alpha (Homo sapiens, UniProt Q16539); assay: p38 kinase in vitro assay, phosphorylation of biotinylated PHAS-I with gamma 32P-ATP; assay type: biochemical
# T2 construct: The coding region of the human p38a cDNA was obtained by PCR-amplification from RNA isolated from the human monocyte cell line THP.1; GST (N); made in house; host or cells: E. coli DH10B
# T2 sequence (Q16539 whole entry): as above
# Summary of the method: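 MKK6-activated human p38α phosphorylates biotinylated PHAS-I with γ-32P-ATP in 25 mM HEPES pH 7.5, 10 mM Mg acetate, 50 μM unlabeled ATP, 1% DMSO, 30 °C for 1 h or overnight. Compounds at 100–0.001 μM (10-fold steps, triplicate); substrate captured on streptavidin filter plates and counted by scintillation.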
# [5] = tested on: TNF-α; assay: Rat assay: LPS-challenged rats, serum TNF-α by ELISA; assay type: in vivo; conditions: Rattus norvegicus, po, 3 mpk oral gavage, read-out: Rat LPS Model % inhib @ dose @ predose time
# [6] = p38α in vitro, read-out: p38^2 IC50
# [7] = mouse, oral, 1h before LPS, 30 mpk, read-out: mLPS 1h, 30 mpk percent inhibition
# [8] = U-937, LPS-stimulated U937 cells, read-out: U937 IC50
# [9] = Mus musculus, 30 mpk oral gavage, -6h before LPS, read-out: Mouse LPS Model % TNF inhib @ dose @ predose time
# [10] = read-out: P38 alpha kinase IC50
# [11] = U-937, TNF production, LPS-stimulated human U937 cells, read-out: U937 Cell IC50
# [12] = Mus musculus, -6h before LPS, read-out: Mouse LPS Model % TNF inhib @ dose @ predose time
SMILES,"IC50 [1, 6]","inhibition in vivo at 30 mg/kg [2, 7]","IC50 [3, 8]",further results
"Cn1cc(-c2ccnc(F)c2)c(-c2ccc(F)c(F)c2)n1 [Example A-260, 4-[3-(3,4-difluorophenyl)-1-methyl-1H-pyrazol-4-yl]-2-fluoropyridine]",230 nM,79%,1280 nM,
"CCC(CO)Nc1cc(-c2c[nH]nc2-c2ccc(F)cc2)ccn1 (stereo not shown) [Example A-213, 2-[[4-[3-(4-fluorophenyl)-1H-pyrazol-4-yl]-2-pyridinyl]amino)-1-butanol]",220 nM,57%,,
"Cn1cc(-c2ccncc2)c(-c2ccc3c(c2)OCO3)n1 [Example A-231, 4-[3-(1,3-benzodioxol-5-y)-1-methyl-1H-pyrazol-4-yl]pyridine]",174 nM,94%,322 nM,
"Fc1cccc(-c2n[nH]cc2-c2ccncc2)c1 [Example A-227, 4-[3-(3-fluorophenyl)-1H-pyrazol-4-yl]pyridine]",60 nM,96%,,
C[C@@H](NS(=O)(=O)c1ccc(F)cc1)c1[nH]nc(-c2ccc(F)cc2)c1-c1ccncc1 [Example B-0385],,,,"inhibition in vivo at 30 mg/kg [2, 9]: 30%; IC50 [4, 10]: 57 nM; inhibition in vivo at 3 mg/kg ([5]; -4 h, -4h before LPS): 0%; IC50 [3, 11]: 900 nM"
"CC(Nc1cc(-c2c[nH]nc2-c2ccc(F)cc2)ccn1)c1ccc(F)cc1 (stereo not shown) [Example A-253, N-[1-(4-fluorophenyl)ethyl]-4-[3-(4-fluorophenyl)-1H-pyrazol-4-yl]-2-pyridinamine]",< 1 nM,61%,4.4 nM,
O=C(NCc1[nH]nc(-c2ccc(F)cc2)c1-c1ccncc1)c1c(F)cc(F)cc1F [Example B-0051],,,,"inhibition in vivo at 100 mg/kg [2, 12]: 47%; inhibition in vivo at 3 mg/kg ([5]; 4 h, 4h): 79%; IC50 [3, 11]: 2150 nM"
"Fc1cc(-c2c[nH]nc2-c2ccc(Cl)cc2)ccn1 [Example A-240, 4-[3-(4-chlorophenyl)-1H-pyrazol-4-yl]-2-fluoropyridine]",961 nM,85%,,
"c1ccc(-c2n[nH]cc2-c2ccncc2)cc1 [Example A-236, 4-(3-phenyl-1H-pyrazol-4-yl)pyridine]",,94%,,"IC50 ([1]; p38^2 IC50, p38α in vitro): 237 nM"
"CN(C)CCn1cc(-c2ccnc(F)c2)c(-c2ccc(F)cc2)n1 [Example A-271, 3-(4-fluorophenyl)-4-(2-fluoro-4-pyridinyl)-N,N-dimethyl-1H-pyrazole-1-ethanamine]",216 nM,68%,4210 nM,
"OCCn1cc(-c2ccnc(/C=C/c3ccc(F)cc3)c2)c(-c2ccc(F)cc2)n1 [Example A-270, (E)-3-(4-fluorophenyl)-4-[2-[2-(4-fluorophenyl)ethenyl]-4-pyridinyl]-1H-pyrazole-1-ethanol]",15 nM,53%,347 nM,
"Clc1ccc(-c2n[nH]cc2-c2ccncc2)cc1 [Example A-230, 4-[3-(4-chlorophenyl)-1H-pyrazol-4-yl]pyridine]",178 nM,96%,,"IC50 ([4]; p38α in vitro, PHAS-I assay procedure, read-out: p38^1 IC50): 420 nM"
"Cn1cc(-c2ccncc2)c(-c2ccc(C(F)(F)F)cc2)n1 [Example A-252, 4-[1-methyl-3-[4-(trifluoromethyl)phenyl]-1H-pyrazol-4-yl]pyridine]",774 nM,75%,1200 nM,
"Cn1cc(-c2ccncc2)c(-c2ccc(Br)cc2)n1 [Example A-243, 4-[3-(4-bromophenyl)-1-methyl-1H-pyrazol-4-yl]pyridine]",729 nM,82%,,
"Cn1cc(-c2ccncc2)c(-c2ccc(Cl)cc2)n1 [Example A-232, 4-[3-(4-chlorophenyl)-1-methyl-1H-pyrazol-4-yl]pyridine]",48 nM,96%,,
"Cn1cc(-c2ccnc(CCc3ccc(F)cc3)c2)c(-c2ccc(F)cc2)n1 [Example A-262, 2-[2-(4-fluorophenyl)ethyl]-4-[3-(4-fluorophenyl)-1-methyl-1H-pyrazol-4-yl]pyridine]",< 100 nM,45%,327 nM,
"Cc1cnccc1-c1cn(C)nc1-c1ccc(F)cc1 [Example A-259, 4-[3-(4-fluorophenyl)-1-methyl-1H-pyrazol-4-yl]-3-methylpyridine]",170 nM,62%,757 nM,
"Brc1ccc(-c2n[nH]cc2-c2ccncc2)cc1 [Example A-241, 4-[3-(4-bromophenyl)-1H-pyrazol-4yl]pyridine]",338 nM,87%,,
C[C@@H](NC(=O)c1ccccc1I)c1[nH]nc(-c2ccc(F)cc2)c1-c1ccncc1 [Example B-0354],,,,"inhibition in vivo at 30 mg/kg [2, 9]: 51%; IC50 [4, 10]: 1000 nM; inhibition in vivo at 3 mg/kg ([5]; -4 h, -4h before LPS): 54%; IC50 [3, 11]: 660 nM"
O=S(=O)(Cc1ccccc1)NCc1[nH]nc(-c2ccc(F)cc2)c1-c1ccncc1 [Example B-0120],,,,"inhibition in vivo at 100 mg/kg [2, 12]: 77%; IC50 [4, 10]: 8 nM; inhibition in vivo at 3 mg/kg ([5]; -4 h, -4h before LPS): 70%; IC50 [3, 11]: 210 nM"
"OCCn1cc(-c2ccnc(F)c2)c(-c2ccc(F)cc2)n1 [Example A-267, 3-(4-fluorophenyl)-4-(2-fluoro-4-pyridinyl)-1H-pyrazole-1-ethanol]",430 nM,80%,2670 nM,
"Fc1ccc(-c2n[nH]cc2-c2ccncc2)cc1F [Example A-239, 4-[3-(3,4-difluorophenyl)-1H-pyrazol-4-yl]pyridine]",34 nM,87%,,
"Fc1ccc(-c2n[nH]cc2-c2ccnc(F)c2)cc1 [Example A-249, 2-fluoro-4-[3-(4-fluorophenyl)-1H-pyrazol-4-yl]pyridine]",432 nM,86%,,
"FC(F)(F)c1cccc(-c2n[nH]cc2-c2ccncc2)c1 [Example A-237, 4-[3-[3-(trifluoromethyl)phenyl]-1H-pyrazol-4-yl]pyridine]",93 nM,60%,87 nM,
"Fc1ccc(-c2n[nH]cc2-c2ccnc(-c3c[nH]nc3-c3ccc(F)cc3)c2)cc1 [Example A-265, 2,4-bis[3-(4-fluorophenyl)-1H-pyrazol-4-yl]pyridine]",< 100 nM,32%,602 nM,
"Cn1cc(-c2ccncc2)c(-c2ccc(F)c(F)c2)n1 [Example A-242, 4-[3-(3,4-difluorophenyl)-1-methyl-1H-pyrazol-4-yl]pyridine]",47 nM,87%,,
C[C@@H](NC(=O)c1ccccc1C(F)(F)F)c1[nH]nc(-c2ccc(F)cc2)c1-c1ccncc1 [Example B-0368],,,,"inhibition in vivo at 30 mg/kg [2, 9]: 37%; IC50 [4, 10]: 1000 nM; IC50 [3, 11]: 640 nM"
"Cn1cc(-c2ccncc2)c(-c2ccc(I)cc2)n1 [Example A-251, 4-[3-(4-iodophenyl)-1-methyl-1H-pyrazol-4-yl]pyridine]",637 nM,87%,,
